In the NIST ThermoML archive (doi:10.1016/j.fluid.2014.07.004):

How the values were obtained:
[1] = 298.15 K; 101.33 kPa; Liquid; Vibrating tube method
[2] = xn = mol fraction of the nth substance listed; details: 298.15 K, 101 kPa, Liquid, Vibrating tube method
[3] = refractive index (Na D-line) (dimensionless); xn = mol fraction of the nth substance listed; details: 298.15 K, 101 kPa, Liquid, Standard Abbe refractometry

COC(=O)OC [dimethyl carbonate]
Details | mass density [kg/m3]
[1] | 1063.26

COc1ccccc1 [anisole] + COC(=O)OC
Details | mass density, [2] [kg/m3] | refractive index, [3]
x1 = 0.0502 | 1058.1 | 1.3759
x1 = 0.0997 | 1053.35 | 1.3847
x1 = 0.1995 | 1044.2 | 1.402
x1 = 0.2996 | 1035.64 | 1.4178
x1 = 0.3999 | 1027.62 | 1.4334
x1 = 0.4998 | 1020.13 | 1.4485
x1 = 0.5999 | 1013.15 | 1.4629
x1 = 0.6999 | 1006.64 | 1.4766
x1 = 0.8 | 1000.51 | 1.4898
x1 = 0.9003 | 994.65 | 1.5027
x1 = 0.9503 | 991.82 | 1.5087

COc1ccccc1 [anisole]
Details | mass density [kg/m3]
[1] | 989.42

COC(=O)OC [dimethyl carbonate] + CO
Details | mass density, [2] [kg/m3] | refractive index, [3]
x2 = 0.0496 | 1056.77 | 1.3658
x2 = 0.1 | 1049.84 | 1.365
x2 = 0.1997 | 1034.4 | 1.3627
x2 = 0.3 | 1016.89 | 1.3607
x2 = 0.3999 | 997.15 | 1.3578
x2 = 0.5 | 974.61 | 1.3543
x2 = 0.5999 | 948.66 | 1.3506
x2 = 0.6999 | 918.36 | 1.3463
x2 = 0.7999 | 882.55 | 1.341
x2 = 0.9 | 839.54 | 1.3346
x2 = 0.9499 | 814.64 | 1.331

COc1ccccc1 [anisole] + CO
Details | mass density, [2] [kg/m3] | refractive index, [3]
x2 = 0.0498 | 985.45 | 1.5105
x2 = 0.1003 | 981.36 | 1.5064
x2 = 0.2003 | 972.63 | 1.4974
x2 = 0.3001 | 962.6 | 1.4865
x2 = 0.4002 | 950.84 | 1.4749
x2 = 0.4997 | 936.67 | 1.4609
x2 = 0.5999 | 919.46 | 1.445
x2 = 0.7001 | 898.19 | 1.4238
x2 = 0.8 | 871.05 | 1.398
x2 = 0.8999 | 835.51 | 1.3658
x2 = 0.95 | 813.27 | 1.3488

Oc1ccccc1 [phenol]
Details | mass density [kg/m3]
[1] | 1058.51

CO [methanol]
Details | mass density [kg/m3]
[1] | 786.59
